Experimental data as given in ChEMBL document CHEMBL3407452, “Linear and branched alkyl-esters and amides of gallic acid and other (mono-, di- and tri-) hydroxy benzoyl derivatives as promising anti-HCV inhibitors” (Eur J Med Chem, 2015).
Active and inactive are the calls of the source. No cut-off for these calls is given here.

Key:
Vaccinia virus = experiment: Antiviral activity against vaccinia virus; type: functional, organism-based; conditions: Orthopoxvirus vaccinia
[1] = tested on: Respiratory syncytial virus; experiment: Antiviral activity against RSV; type: functional, organism-based
Felid alphaherpesvirus 1 = experiment: Antiviral activity against feline herpesvirus; type: functional, organism-based
Feline coronavirus = experiment: Antiviral activity against feline coronavirus; type: functional, organism-based
Coxsackievirus B4 = experiment: Antiviral activity against human coxsackievirus B4; type: functional, organism-based
Punta Toro virus = experiment: Antiviral activity against punta toro virus; type: functional, organism-based
Human respirovirus 3 = experiment: Antiviral activity against human parainfluenza virus 3; type: functional, organism-based
[2] = Cytotoxicity against human CEM cells assessed as inhibition of cell proliferation; type: cell-based; conditions: CEM cells (CCRF-CEM)
Influenza A virus = experiment: Antiviral activity against influenza A virus (H1N1); type: functional, organism-based
[3] = tested on: Vesicular stomatitis virus; experiment: Antiviral activity against vesicular stomatitis virus; type: functional, organism-based
Reovirus sp. = experiment: Antiviral activity against reovirus; type: functional, organism-based
[4] = tested on: Human immunodeficiency virus 2; experiment: Antiviral activity against HIV2 ROD infected in human CEM cells assessed as reduction in virus-induced cytopathicity after 4 to 5 days by microscopy based syncytium cell formation assay; type: functional, organism-based, ISOLATE ROD, CCRF-CEM; conditions: Human immunodeficiency virus 2, ISOLATE ROD, CCRF-CEM; read-out: EC50
Influenza A virus H3N2 = experiment: Antiviral activity against influenza A virus H3N2; type: functional, organism-based
Chikungunya virus = experiment: Antiviral activity against chikungunya virus; type: functional
Sindbis virus = experiment: Antiviral activity against sindbis virus; type: functional, organism-based
[5] = tested on: Human immunodeficiency virus 1; experiment: Antiviral activity against HIV1 3B infected in human CEM cells assessed as reduction in virus-induced cytopathicity after 4 to 5 days by microscopy based syncytium cell formation assay; type: functional, organism-based, CCRF-CEM; conditions: Human immunodeficiency virus 1, 3B, CCRF-CEM; read-out: EC50
Hepatitis C virus = experiment: Antiviral activity against HCV genotype 1b I389luc-ubi-neo/NS3-3'/5.1 replicons infected in human Huh5-2 HCV subgenomic replicon-containing cells assessed as reduction in virus replication after 3 days by luciferase reporter gene assay; type: functional, Hepacivirus hominis; conditions: Hepatitis C virus, genotype 1b, Huh-5-2, 72 h; for EC50: read-out: EC50
[6] = Cytotoxicity against human Huh5-2 cells after 72 hrs by MTS assay; type: cell-based, Huh-5-2

Row | SMILES | Activity (Vaccinia virus) | Activity [1] | Activity (Felid alphaherpesvirus 1) | Activity (Feline coronavirus) | Activity (Coxsackievirus B4) | Activity (Punta Toro virus) | Activity (Human respirovirus 3) | CC50 [2] [µM] | Activity (Influenza A virus) | Activity [3] | Activity (Reovirus sp.) | EC50 [4] [µM] | Activity (Influenza A virus H3N2) | Activity (Chikungunya virus) | Activity (Sindbis virus) | EC50 [5] [µM] | EC90 (Hepatitis C virus) [µM] | EC50 (Hepatitis C virus) [µM] | CC50 at 72 h [6] [µM]
1 | O=C(O)c1cc(O)c(O)c(O)c1 [GALLIC ACID] | inactive | inactive | inactive | inactive | inactive | inactive | inactive | > 250 | inactive | inactive | inactive | > 50 | inactive | inactive | inactive | > 50 | – | – | –
2 | CCCCCCCCOC(=O)c1cc(O)c(O)c(O)c1 [OCTYL_GALLATE] | inactive | inactive | inactive | inactive | inactive | inactive | inactive | 11 | inactive | inactive | inactive | > 2 | inactive | inactive | inactive | > 2 | – | – | –
3 | O=C(NCCCCCCCCNC(=O)c1cc(O)c(O)c(O)c1)c1cc(O)c(O)c(O)c1 | inactive | inactive | inactive | inactive | inactive | inactive | inactive | 51 | inactive | inactive | inactive | – | inactive | inactive | inactive | > 10 | > 50 | 23 | > 50
4 | O=C(NCCN(CCNC(=O)c1cc(O)c(O)c(O)c1)C(=O)c1cc(O)c(O)c(O)c1)c1cc(O)c(O)c(O)c1 | inactive | inactive | inactive | inactive | inactive | inactive | inactive | 34 | inactive | inactive | inactive | > 10 | inactive | inactive | inactive | > 10 | – | – | –
5 | O=C(NCCNC(=O)c1cccc(O)c1O)c1cccc(O)c1O | inactive | inactive | inactive | inactive | inactive | inactive | inactive | 19 | inactive | inactive | inactive | > 10 | inactive | inactive | inactive | > 10 | – | – | –
6 | O=C(NCCCCNC(=O)c1ccccc1O)c1ccccc1O | inactive | inactive | inactive | inactive | inactive | inactive | inactive | 35 | inactive | inactive | inactive | – | inactive | inactive | inactive | > 10 | – | 11 | > 49
7 | CCC[C@H](NC(=O)[C@@H]1[C@H]2CCC[C@H]2CN1C(=O)[C@@H](NC(=O)[C@@H](NC(=O)c1cnccn1)C1CCCCC1)C(C)(C)C)C(=O)C(=O)NC1CC1 [TELAPREVIR] | – | – | – | – | – | – | – | – | – | – | – | – | – | – | – | – | – | 2.8 | 47
8 | O=C(NCCNC(=O)c1ccccc1O)c1ccccc1O | inactive | inactive | inactive | inactive | inactive | inactive | inactive | 25 | inactive | inactive | inactive | > 10 | inactive | inactive | inactive | > 10 | – | – | –
